Measurements as given in US11149004B2, “Crystalline form of EB-1020, processes for preparation and use thereof” (priority 2017, dated 2021).
Entries after “also recorded” stand apart in the source; their conditions may differ. Where two headings read alike, the source gives them in different places. Marks after values point to notes of the source that are not given here.

What was measured:
[1] = Storage stability of prior art Form C; format: physicochemical; conditions: room temperature, a month; found by the inventors
Description: The prior art WO2016205762A disclosed Form A, Form B and Form C of EB-1020.

[2] = 40° C./75% RH, two weeks; per WO2016205762A paragraph [00232]; cited from earlier work
[3] = Grinding stability of Form CS1, prior art Form A and Form B; format: physicochemical; conditions: ground manually for 5 minutes in a mortar, XRPD, hydrochloride
Experimental: A certain amount of Form CS1, prior art Form A and Form B were ground manually for 5 minutes in a mortar. The XRPD patterns of Form CS1 before and after grinding are as depicted in FIG. 8 (top: before grinding; bottom: after grinding). The XRPD patterns of prior art Form A before and after grinding are as depicted in FIG. 9 (top: before grinding; bottom: after grinding). The XRPD patterns of prior art Form B before and after grinding are as depicted in FIG. 10 (top: before grinding; bottom: after grinding).

[4] = Kinetic solubility in FaSSIF and FeSSIF; format: physicochemical; conditions: for Solubility (mg/mL) eSSIF / Solubility (mg/mL) FaSSIF: hydrochloride
Description: High Performance Liquid Chromatography (HPLC) data for solubility test in the present disclosure were collected from an Agilent 1260 with Diode Array Detector (DAD). The method parameters are as follows:
Simulated gastrointestinal fluids such as FaSSIF (Fasted state simulated intestinal fluids) and FeSSIF (Fed state simulated intestinal fluids) are biorelevant media. Solubility in such media is close to in vivo solubility, because these media can reflect the effects of intestinal environment on drug release better.
A certain amount of Form CS1, prior art Form A and Form B were suspended in FaSSIF and FeSSIF to get saturated solutions. After equilibration for 4 h, concentrations (mg/mL) of the saturated solutions were measured by HPLC.

[5] = Morphology (polarizing microscope, PLM); format: physicochemical
Description: Morphology of Form CS1 of the present disclosure was checked by a polarizing microscope (PLM), and the PLM image is shown in FIG. 11. […] Form CS1 has better flowability and is more suitable for processing and preparing drug product.

[6] = Physical stability of Form CS1 under different pressures (tableting); format: physicochemical; conditions: for Crystalline form after tableting: XRPD
Description: A certain amount of Form CS1 were compressed into pellets under different pressures with suitable tableting die. Crystalline forms before and after tableting were checked by XRPD.

[7] = Adhesiveness of Form CS1 (material sticking to the punch); format: physicochemical
Experimental: 30 mg of Form CS1 were weighed and then added into the dies of φ8 mm round tooling, compressed at 10 KN and held for 30s. The punch was weighed and the amount of material sticking to the punch was calculated. The compression was repeated twice and the cumulative amount, maximum amount and average amount of material sticking to the punch during the compression were recorded.

[8] = Compressibility of Form CS1 (tensile strength); format: physicochemical
Experimental: A manual tablet press was used for compression. A certain amount of Form CS1 were added into the dies of round tooling and compressed at certain pressure manually, the tablet was stored in a desiccator for 24 h until complete elastic recovery. Hardness (H) was tested with an Intelligent Tablet Hardness Tester. Diameter (D) and thickness (L) were tested with a caliper. Tensile strength of the powder was calculated with the following formula: T=2H/πDL. Under a certain force, the greater the tensile strength, the better the compressibility.

[9] = according to WO2016205762A paragraph [00179]; cited from earlier work
[10] = 30 mg, φ8 mm round tooling, 10 KN, held 30s
[11] = φ6 mm round tooling, 80 mg, 10 kN, after 24 h elastic recovery
[12] = FaSSIF, equilibration 4 h, HPLC

## Cl.c1ccc2cc([C@]34CNC[C@H]3C4)ccc2c1 [Form C, (1R,5S)-1-(naphthalen-2-yl)-3-azabicyclo[3.1.0]hexane hydrochloride]
[1]
  Crystalline form after storage: converted to Form A
[2]
  Crystalline form after storage: converted to a mixture of Form A and Form B

## Cl.c1ccc2cc([C@]34CNC[C@H]3C4)ccc2c1 [Form CS1, (1R,5S)-1-(naphthalen-2-yl)-3-azabicyclo[3.1.0]hexane hydrochloride]
[3]
  Crystalline form after grinding: remains unchanged
  Crystallinity after grinding: remained substantially unchanged; also recorded: little change in crystallinity
[4]; FaSSIF (fasted state simulated intestinal fluid), fassif, thermodynamic from solid, FaSSIF, equilibration 4 h, HPLC, read-out: Solubility (mg/mL) FaSSIF
  solubility at 4 h: 75.3 mg/mL
[4]; FaSSIF and FeSSIF
  Solubility compared with prior art Form A and Form B: higher
[4]; FeSSIF
  Solubility relative to prior art Form A and Form B: almost twice
[4]; equilibration 4 h, HPLC
  Solubility (mg/mL) eSSIF: 74.8 mg/mL
[5]
  Morphology: spherical or short rod-like crystal
[6]; Pressure 3 kN
  Crystalline form after tableting: Form CS1
[6]; Pressure 7 kN
  Crystalline form after tableting: Form CS1
[6]; Pressure 14 kN
  Crystalline form after tableting: Form CS1
[6]; different pressures
  Crystalline form after compression into tablets under different pressures: remains unchanged
[7]
  Adhesiveness: low adhesiveness
[7]; [10]
  Average amount (mg) of material sticking to the punch: 0* mg
  Cumulative amount (mg) of material sticking to the punch: 0* mg
  Maximum amount (mg) of material sticking to the punch: 0.07 mg
[8]
  Compressibility: good compressibility
[8]; T=2H/πDL, φ6 mm round tooling, 80 mg, 10 kN
  Tensile strength (MPa): 1.04 MPa
[8]; [11]
  Diameter (mm): 6.95 mm
  Thickness (mm): 2.40 mm

## Cl.c1ccc2cc([C@]34CNC[C@H]3C4)ccc2c1 [prior art Form A, (1R,5S)-1-(naphthalen-2-yl)-3-azabicyclo[3.1.0]hexane hydrochloride, reference compound]
[3]
  Crystallinity after grinding: decreased obviously
[3]; listed as Form A
  Crystallinity after grinding: obvious decrease of crystallinity
[4]; [12]
  Solubility (mg/mL) FaSSIF: 46.9 mg/mL
[4]; equilibration 4 h, HPLC
  Solubility (mg/mL) eSSIF: 36.0 mg/mL
[9]
  Morphology: needle-like crystals

## Cl.c1ccc2cc([C@]34CNC[C@H]3C4)ccc2c1 [prior art Form B, (1R,5S)-1-(naphthalen-2-yl)-3-azabicyclo[3.1.0]hexane hydrochloride, reference compound]
[3]
  Crystalline form after grinding: changed
[3]; listed as Form B
  Crystalline form after grinding: partially converts to Form A
[4]; [12]
  Solubility (mg/mL) FaSSIF: 52.0 mg/mL
[4]; equilibration 4 h, HPLC
  Solubility (mg/mL) eSSIF: 29.2 mg/mL
[9]
  Morphology: needle-like crystals
